Results published in PubChem BioAssay AID2060912 (Molecular Pharmacology Branch, DTP, NCI, 2025).

Test system: HUVEC/MSC spheroids viability
Experiment: Human HUVEC/MSC cell line growth inhibition [KRAS2];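 on viability, T/C: percent of DMSO vehicle control luminescence so 100% = untreated viability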
Conditions: for viability, T/C: stronger effect = lower value; active means viability on the fitted dose curve at most 10% of control; inactive means the rest
Method in brief: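 Spheroids of pooled-donor HUVEC and hMSC (passage ≤5) without tumour cells were treated with KRAS-pathway inhibitors alone and combined with targeted agents. Top concentration was at or near clinical Cmax, or 10 microM when Cmax was unknown, descending in half-log steps.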

[1] = curve of first compound, second compound 0.00949 µM
[2] = curve of first compound, second compound 0.03 µM
[3] = curve of first compound, second compound 0.0949 µM
[4] = curve of first compound, second compound 0.3 µM
[5] = curve of first compound, second compound 0.949 µM
[6] = curve of first compound, second compound 3 µM
[7] = second compound 0.00949 µM, first compound 0.0316 µM
[8] = second compound 0.00949 µM, first compound 0.1 µM
[9] = second compound 0.00949 µM, first compound 0.316 µM
[10] = second compound 0.00949 µM, first compound 1 µM
[11] = second compound 0.00949 µM, first compound 3.16 µM
[12] = second compound 0.00949 µM, first compound 10 µM
[13] = second compound 0.03 µM, first compound 0.0316 µM
[14] = second compound 0.03 µM, first compound 0.1 µM
[15] = second compound 0.03 µM, first compound 0.316 µM
[16] = second compound 0.03 µM, first compound 1 µM
[17] = second compound 0.03 µM, first compound 3.16 µM
[18] = second compound 0.03 µM, first compound 10 µM
[19] = second compound 0.0949 µM, first compound 0.0316 µM
[20] = second compound 0.0949 µM, first compound 0.1 µM
[21] = second compound 0.0949 µM, first compound 0.316 µM
[22] = second compound 0.0949 µM, first compound 1 µM
[23] = second compound 0.0949 µM, first compound 3.16 µM
[24] = second compound 0.0949 µM, first compound 10 µM
[25] = second compound 0.3 µM, first compound 0.0316 µM
[26] = second compound 0.3 µM, first compound 0.1 µM
[27] = second compound 0.3 µM, first compound 0.316 µM
[28] = second compound 0.3 µM, first compound 1 µM
[29] = second compound 0.3 µM, first compound 3.16 µM
[30] = second compound 0.3 µM, first compound 10 µM
[31] = second compound 0.949 µM, first compound 0.0316 µM
[32] = second compound 0.949 µM, first compound 0.1 µM
[33] = second compound 0.949 µM, first compound 0.316 µM
[34] = second compound 0.949 µM, first compound 1 µM
[35] = second compound 0.949 µM, first compound 3.16 µM
[36] = second compound 0.949 µM, first compound 10 µM
[37] = second compound 3 µM, first compound 0.0316 µM
[38] = second compound 3 µM, first compound 0.1 µM
[39] = second compound 3 µM, first compound 0.316 µM
[40] = second compound 3 µM, first compound 1 µM
[41] = second compound 3 µM, first compound 3.16 µM
[42] = second compound 3 µM, first compound 10 µM

CCNC(=O)CC1N=C(c2ccc(Cl)cc2)c2cc(OC)ccc2-n2c(C)nnc21 (centres undefined) + C=CC(=O)N1CCN(c2nc(OCC3CCCN3C)nc3c2CCN(c2cccc4cccc(C)c24)C3)CC1CC#N
> 10 µM: IC50 [1] | IC50 [2] | IC50 [3] | IC50 [4] | IC50 [5] | IC50 [6]
inactive: viability, T/C [7] 68.5% | viability, T/C [8] 79.5% | viability, T/C [9] 69.5% | viability, T/C [10] 115% | viability, T/C [11] 100% | viability, T/C [12] 90.3% | viability, T/C [13] 82.6% | viability, T/C [14] 76.9% | viability, T/C [15] 79.1% | viability, T/C [16] 108% | viability, T/C [17] 119% | viability, T/C [18] 110% | viability, T/C [19] 73.3% | viability, T/C [20] 63.3% | viability, T/C [21] 78.8% | viability, T/C [22] 115% | viability, T/C [23] 97.8% | viability, T/C [24] 111% | viability, T/C [25] 72.8% | viability, T/C [26] 64.3% | viability, T/C [27] 60.5% | viability, T/C [28] 102% | viability, T/C [29] 91.9% | viability, T/C [30] 104% | viability, T/C [31] 53.3% | viability, T/C [32] 63.1% | viability, T/C [33] 82.7% | viability, T/C [34] 74% | viability, T/C [35] 83.7% | viability, T/C [36] 86.1% | viability, T/C [37] 75.5% | viability, T/C [38] 89.9% | viability, T/C [39] 82.7% | viability, T/C [40] 67.1% | viability, T/C [41] 71.2% | viability, T/C [42] 54.3%

CC1(C)CCC(CN2CCN(c3ccc(C(=O)NS(=O)(=O)c4ccc(NCC5CCOCC5)c([N+](=O)[O-])c4)c(Oc4cnc5[nH]ccc5c4)c3)CC2)=C(c2ccc(Cl)cc2)C1 + C=CC(=O)N1CCN(c2nc(OCC3CCCN3C)nc3c2CCN(c2cccc4cccc(C)c24)C3)CC1CC#N
3.41 µM: IC50 [6]
5.12 µM: IC50 [1]
3.55 µM: IC50 [5]
4.68 µM: IC50 [3]
4.76 µM: IC50 [2]
active: viability, T/C [12] 3.48% | viability, T/C [18] 3.1% | viability, T/C [24] 1.65% | viability, T/C [30] 1.21% | viability, T/C [36] 3.31% | viability, T/C [42] 0.24%
inactive: viability, T/C [7] 105% | viability, T/C [8] 86.2% | viability, T/C [9] 96.9% | viability, T/C [10] 91.4% | viability, T/C [11] 83.5% | viability, T/C [13] 99.3% | viability, T/C [14] 92% | viability, T/C [15] 111% | viability, T/C [16] 94.4% | viability, T/C [17] 76% | viability, T/C [19] 83.1% | viability, T/C [20] 103% | viability, T/C [21] 84.1% | viability, T/C [22] 94.6% | viability, T/C [23] 75.1% | viability, T/C [25] 73.4% | viability, T/C [26] 75.9% | viability, T/C [27] 78.7% | viability, T/C [28] 96.8% | viability, T/C [29] 61.3% | viability, T/C [31] 67.6% | viability, T/C [32] 80.8% | viability, T/C [33] 72% | viability, T/C [34] 87.5% | viability, T/C [35] 55.3% | viability, T/C [37] 81% | viability, T/C [38] 86.1% | viability, T/C [39] 94.8% | viability, T/C [40] 71.2% | viability, T/C [41] 54.7%
3.93 µM: IC50 [4]

C=CC(=O)N1CCN(c2nc(OCC3CCCN3C)nc3c2CCN(c2cccc4cccc(C)c24)C3)CC1CC#N (centres undefined)
> 3 µM: IC50 (compound alone, run of 05/05/2024)
inactive: viability, T/C (compound 0.03 µM) 94.9% [middle of 9 runs] | viability, T/C (compound 0.949 µM) 73.6% [middle of 9 runs] | viability, T/C (compound 3 µM) 80.8% [middle of 9 runs]

O=C(c1cc(Cc2n[nH]c(=O)c3ccccc23)ccc1F)N1CCN(C(=O)C2CC2)CC1
> 10 µM: IC50 (curve of compound)
inactive: viability, T/C (compound 0.316 µM) 90.8% [middle of 5 runs] | viability, T/C (compound 1 µM) 89.3% [middle of 5 runs] | viability, T/C (compound 10 µM) 95.3% [middle of 5 runs]

O=C(c1cc(Cc2n[nH]c(=O)c3ccccc23)ccc1F)N1CCN(C(=O)C2CC2)CC1 + CC1OCC2(CCN(c3cnc(Sc4ccnc(N)c4Cl)c(N)n3)CC2)C1N
> 10 µM: IC50 (curve of first compound, second compound 0.0316 µM) | IC50 (curve of first compound, second compound 0.1 µM) | IC50 (curve of first compound, second compound 0.316 µM) | IC50 (curve of first compound, second compound 1 µM) | IC50 (curve of first compound, second compound 3.16 µM) | IC50 (curve of first compound, second compound 10 µM)
inactive: viability, T/C (second compound 0.0316 µM, first compound 0.0316 µM) 102% | viability, T/C (second compound 0.0316 µM, first compound 0.1 µM) 117% | viability, T/C (second compound 0.0316 µM, first compound 0.316 µM) 100% | viability, T/C (second compound 0.0316 µM, first compound 1 µM) 98.7% | viability, T/C (second compound 0.0316 µM, first compound 3.16 µM) 101% | viability, T/C (second compound 0.0316 µM, first compound 10 µM) 132% | viability, T/C (second compound 0.1 µM, first compound 0.0316 µM) 101% | viability, T/C (second compound 0.1 µM, first compound 0.1 µM) 101% | viability, T/C (second compound 0.1 µM, first compound 0.316 µM) 104% | viability, T/C (second compound 0.1 µM, first compound 1 µM) 108% | viability, T/C (second compound 0.1 µM, first compound 3.16 µM) 109% | viability, T/C (second compound 0.1 µM, first compound 10 µM) 94.6% | viability, T/C (second compound 0.316 µM, first compound 0.0316 µM) 102% | viability, T/C (second compound 0.316 µM, first compound 0.1 µM) 119% | viability, T/C (second compound 0.316 µM, first compound 0.316 µM) 99% | viability, T/C (second compound 0.316 µM, first compound 1 µM) 101% | viability, T/C (second compound 0.316 µM, first compound 3.16 µM) 88% | viability, T/C (second compound 0.316 µM, first compound 10 µM) 89.4% | viability, T/C (second compound 1 µM, first compound 0.0316 µM) 85.4% | viability, T/C (second compound 1 µM, first compound 0.1 µM) 110% | viability, T/C (second compound 1 µM, first compound 0.316 µM) 95.6% | viability, T/C (second compound 1 µM, first compound 1 µM) 87.2% | viability, T/C (second compound 1 µM, first compound 3.16 µM) 86.6% | viability, T/C (second compound 1 µM, first compound 10 µM) 88.4% | viability, T/C (second compound 3.16 µM, first compound 0.0316 µM) 74.2% | viability, T/C (second compound 3.16 µM, first compound 0.1 µM) 96.3% | viability, T/C (second compound 3.16 µM, first compound 0.316 µM) 91.8% | viability, T/C (second compound 3.16 µM, first compound 1 µM) 89.8% | viability, T/C (second compound 3.16 µM, first compound 3.16 µM) 98.1% | viability, T/C (second compound 3.16 µM, first compound 10 µM) 90.8% | viability, T/C (second compound 10 µM, first compound 0.0316 µM) 72.5% | viability, T/C (second compound 10 µM, first compound 0.1 µM) 79.7% | viability, T/C (second compound 10 µM, first compound 0.316 µM) 79.9% | viability, T/C (second compound 10 µM, first compound 1 µM) 67.6% | viability, T/C (second compound 10 µM, first compound 3.16 µM) 81.5% | viability, T/C (second compound 10 µM, first compound 10 µM) 76.4%
